Source: patent US20250179024A1, “AMYLOID AND ASSOCIATED PATHOLOGY MODULATORS AND METHODS THEREOF” (Jawaharlal Nehru Centre for Advanced Scientific Research, priority 2022, published 2025)

Tests used:
SH-SY5Y cells [1] = assay: Neuronal cell rescue from Aβ toxicity (MTT); assay type: cell-based; conditions: Aβ 10 μM
Experimental: (§1) Cell rescue from Aβ toxicity by NMIs were assessed in SH-SY5Y cells. The cells were seeded into 96 well plate at cell density of 25,000 cells per well and after 24 h the media was replaced with DMEM-F12 with low serum (2.5% FBS). After 6 h, cells were treated with Aβ (10 μM) alone and with NMIs (20 μM) in low serum media. Different concentrations of compound (10, 20 and 50 μM) were used to treat cells. For metal dependent studies, Aβ (10 μM) with metals (20 μM) in the absence and presence of NMIs (20 μM) was treated. The cells were incubated for 30 h and MTT assay was performed to calculate the percentage cell viability.
Compounds of the present disclosure (M1 to M4) were evaluated for their ability to rescue neuronal cells from Aβ toxicity by MTT assay.
(§2) Further, the effect of concentration of compounds of the present disclosure on the cell rescue was assessed. […] The ability of NMIs to rescue cells from metal-dependent Aβ toxicity were assessed in the presence of Cu (II) and Zn (II). Cells were treated with Aβ (10 μM) along with metal ions (20 μM) and NMIs (20 μM) for 30 h. Aβ in the presence of Cu (II) reduced cell viability to ˜62% and M3 treatment had rescued cells with viability to 85% (FIG. 12C). Aβ with Zn (II) viability reduced to ˜61% and M3 treatment rescued cells by improving the viability to ˜79% (FIG. 12D). […] These in-cellulo experiments confirmed the ability of M3 to effectively rescue neuronal cells from metal-independent and dependent Aβ toxicity.

[2] = target: T1, Aβ in the presence of Zn (II) (Homo sapiens, UniProt P05067); assay: Zn-dependent Aβ aggregation, native PAGE and western blot; assay type: biochemical; conditions: Aβ 10 μM, Zn (II) 20 μM, NMIs 20 μM, 37° C., 48 h
T1 construct: is a 42 amino acid proteolytic product from the amyloid precursor protein; purchased Invitrogen
Experimental: The samples were prepared by incubating Aβ42 with specific concentration of NMI compounds of present disclosure and metal ions for 48 h and then subjected to 6% native polyacrylamide gel electrophoresis (Native-PAGE) in tris-glycine buffer. The lower molecular weight aggregates permeabilized through the gel and resolved in the gel. Higher molecular aggregates stuck in the upper part of wells and potentially carried in gel. Then the protein was transferred to PVDF membrane for 4 h at cold condition maintained using ice cold transfer buffer and immersing the transfer apparatus in ice. Then the blots were continued similar to dot blots.
The absorbance and fluorescence spectroscopy studies together with mass spectrometry data confirmed the selective Cu (II) or Zn (II) chelation property of M1 and M3. […] Aβ (10 μM) was incubated in the presence of Cu (II) or Zn (II) (20 μM) with NMIs at 37° C. for 48 h and the samples were subjected to native PAGE and western blot analysis. […] Modulation of Zn-dependent Aβ aggregation by M4 was attributed to its two Zn (II) chelation centres. M3 with dopamine and DPA moieties effectively modulated both Cu (II) and Zn (II)-dependent Aβ aggregation. The effect of NMIs on the morphological outcome of metal-dependent Aβ aggregation was visualized by AFM imaging (FIGS. 1E and 1F). Aβ in the presence of Cu (II) and Zn (II) formed dense and thick fibrils.

SH-SY5Y cells [3] = assay: Cell rescue from Cu (II)-dependent Aβ toxicity (MTT); assay type: cell-based
Experimental: as §1, §2

SH-SY5Y cells [4] = assay: Mitochondrial membrane potential (MMP) measurement, Mitotracker Orange; assay type: cell-based; conditions: Aβ 20 μM, 18 h; for MMP relative to control (100%): Aβ alone 70%
Experimental: For quantifying relative change in MMP, SH-SY5Y cells were seeded into 96 plates and incubated. After 24 h, cells were treated with Aβ (20 μM) alone and with two different concentrations of NMIs (M3) (20 and 50 μM) for 18 h and stained with Mitotracker Orange (500 nM) in media for 15 min followed by washing with PBS twice. Then quickly fluorescence was measured (λex=554 nm and λem=576 nm) by Spectramax multi-well plate reader in well scan mode (>80 points, with 6 flashes per read) and averaged the value. The relative fluorescence of treatments in comparison with control was calculated to assess the change in MMP.
For fluorescence imaging, cells were seeded into glass bottom dishes and incubated for 24 h. Then treated with Aβ (20 μM) alone and with NMIs (M3) (50 μM) in low serum media for 18 h and stained with Mitotracker Orange (500 nM) in media for 15 min. Cells were washed with PBS thrice and imaged in live cell set up in Rhodamine channel using 63× oil immersion using Leica DMi8 fluorescence microscope.
The compound M3 with aggregation modulation and antioxidant activity potentially prevent Aβ mediated mitochondrial damage. Quantitatively measurement of mitochondrial membrane potential (MMP) changes was carried out. SH-SY5Y cells were cultured in 96 well plate, treated with Aβ (20 μM) alone and with different concentrations of M3 (20 μM and 50 μM) for 18 h and relative MMP was measured using MitoOrange fluorescence, a MMP-dependent mitochondrial probe. MMP of Aβ treated cells dropped to 70% compared to control (100%) reflecting the functional damage to mitochondria. Upon treatment with M3 at two concentrations 20 μM and 50 µM, MMP was improved to 88% and 93%, respectively, which indicated prevention of mitochondrial damage (FIG. 14A).
Changes in MMP were visualized by treating the cells with Aβ (20 μM) alone and with M3 (50 μM) for 18 h followed by staining with MitoOrange. […] The ability of M3 to modulate Aβ-induced ROS levels in mitochondria was evaluated by the MitoSOX probe. […]

[5] = modulators 20 μM, Aβ alone ~52%, FIG. 12A

T1 sequence (P05067 672-713 limits assumed): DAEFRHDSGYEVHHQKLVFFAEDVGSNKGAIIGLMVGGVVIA

SMILES | cell viability (SH-SY5Y cells [1]; [5]) | Zn-dependent Aβ aggregation [2] | cell viability (SH-SY5Y cells [1]; 50 μM compound, control 54%, FIG. 12B) | viability at 5 µM (SH-SY5Y cells [1]; Homo sapiens, SH-SY5Y, 5 μM compound, control 54%, FIG. 12B) [%] | viability at 10 µM (SH-SY5Y cells [1]; Homo sapiens, SH-SY5Y, 10 μM compound, control 54%, FIG. 12B) [%] | viability at 20 µM (SH-SY5Y cells [1]; Homo sapiens, SH-SY5Y, 20 μM compound, control 54%, FIG. 12B) [%] | cell viability (SH-SY5Y cells [3]; Aβ 10 μM, Cu (II) 20 μM, NMIs 20 μM, 30 h, without compound ~62%) [%] | cell viability (SH-SY5Y cells [3]; Cu (II)-dependent Aβ toxicity, higher concentration 50 µM, FIG. 13) [%] | MMP relative to control (100%) (SH-SY5Y cells [4]; compound 20 μM) [%] | MMP by fluorescence imaging (SH-SY5Y cells [4]; compound 50 μM) | MMP relative to control (100%) (SH-SY5Y cells [4]; compound 50 µM) [%]
CN(C)c1ccc2c3c(cccc13)C(=O)N(CCc1ccc(O)c(O)c1)C2=O [M1, 2-(3,4-dihydroxyphenethyl)-6-(dimethylamino)-1H-benzo[de]isoquinoline-1,3(2H)-dione] | lowered alleviation of the Aβ toxicity | – | – | – | – | – | – | – | – | – | –
O=C1c2cccc3c(N(Cc4ccccn4)Cc4ccccn4)ccc(c23)C(=O)N1CCc1ccc(O)c(O)c1 [M3, 6-(bis(pyridin-2-ylmethyl)amino)-2-(3,4-dihydroxyphenethyl)-1H-benzo[de]isoquinoline-1,3(2H)-dione] | ~75% | reduce Zn-dependent Aβ aggregation | near-complete rescue | 68 | 70 | 83 | 85 | 86 | 88 | least affected | 93
